Test results from PubChem BioAssay AID179 (DTP/NCI, 2004).
Where “and” joins values, the source holds several entries; their conditions need not be identical. Equal values may be shown once. Calls of active or inactive are those of the source.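 Rule for the calls: active = compounds giving half or more protection of infected cells from virus-caused growth loss, again on retest; inactive = the rest.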

System: CEM cells HIV-1 protection, formazan growth assay
Experiment: NCI AIDS Antiviral Assay
Conditions: for IC50: measured here: growth of uninfected CEM cells
Outline: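 Soluble formazan readout of cell growth; CEM cells ± HIV-1; 5 drug concs. ≥50% protection → retest; ≥50% again = moderately active; reproducible 100% = confirmed active.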

| SMILES | EC50 | IC50 | outcome |
| --- | --- | --- | --- |
| CN(C)P(CCP(CCP(N(C)C)N(C)C)c1ccccc1)N(C)C | > 617 µM | > 617 µM | – |
| COc1cc(NCC2COc3c(ccc(OC)c3OC)C2=O)c([N+](=O)[O-])cc1OC (stereo unspecified) | > 200 µM | 186 µM | – |
| Nc1nc(N)c(CCCc2ccccc2)c(N)n1 | – | – | inactive |
| CC1(C)OC(=O)C(=C=[N-])/C1=C\[n+]1ccccc1 | > 417 µM | > 417 µM | – |
| CC1CCc2ccccc2O1 (stereo unspecified) | > 200 µM | > 200 µM | – |
| CCN1CCC(O)(/C=C/c2ccc(C)cc2C)C(C(=O)/C=C/c2ccc(C)cc2C)C1 (stereo unspecified) | > 200 µM | 3.24 µM | – |
| c1ccc(NC2(c3nnnn3C3CCCCC3)CCNCC2)cc1 | > 200 µM | 34.7 µM | – |
| CN(C)CCNC(=O)c1cccc2c(Nc3ccc(S(N)(=O)=O)cc3)c3ccccc3nc12 | – | – | inactive |
| C[C@]12C[C@H](c3ccccc3)Nc3ccccc3N1C(c1ccccc1)=NO2 | > 200 µM | 36.3 µM | – |
| CCOC(=O)C(NC(C)=O)(Nc1ccc(F)cc1)C(F)(F)F (stereo unspecified) | – | – | inactive |
| O=C1c2ccccc2C(=O)c2c(NCCNCCO)ccc(O)c21 | – | – | inactive |
| CCOC(=O)/C(Cl)=C1\SN(C(=O)OCC)N=C1C | > 102 µM | 10.7 µM | – |
| Cc1cc(NS(=O)(=O)c2ccc(Nc3c4ccccc4nc4c(C(=O)N5CCN(CCO)CC5)ccc(Cl)c34)cc2)no1 | > 47.9 µM | > 47.9 µM | – |
| COc1ccc(C2NCCc3c2[nH]c2ccccc32)cc1 (stereo unspecified) | – | – | inactive |
| Cn1c(=O)nc2n(CCO)c(-c3ccccc3)c(-c3ccccc3)nc-2c1=O | > 200 µM | > 200 µM | – |
| NNC(=O)c1n[nH]nc1C(=O)NN | > 200 µM | > 200 µM | – |
| O=c1c2ccccc2n2c(-c3ccccc3O)nnc2n1-c1ccccc1 | > 200 µM | > 200 µM | – |
| COC(=O)[C@@H]1C[C@@H](OS(=O)(=O)c2ccc(C)cc2)CN1C(=O)OCc1ccccc1 | – | – | inactive |
| COc1ccccc1C1SC(c2ccccc2)(c2ccccc2)OC1=O (stereo unspecified) | > 3.98 µM | > 3.98 µM | – |
| COc1cccc(Nc2nc(N)nc(N)c2N)c1 | > 200 µM | 26.3 µM | – |
| C=C1CCC[C@@H]2[C@@](C)(CC3=CC(=O)C=CC3=O)C(C)CC[C@]12C (stereo partly specified) | > 60.3 µM | 0.427 µM | – |
| Cc1c2c(n(CCc3ccc(Cl)cc3)c1C)NN=C(C#N)S2(=O)=O | > 200 µM | 85.1 µM | – |

| SMILES | EC50 | IC50 | outcome |
| --- | --- | --- | --- |
| CNC(=S)c1nnsc1N | > 200 µM | 0.302 µM | – |
| CCOC(=O)c1c(SCc2ccccc2)nc2c3ccccc3ccn12 | > 151 µM | > 151 µM | – |
| COC(=O)C1(C(C)C)CCc2c(OC)ccc(OC)c2C1=O (stereo unspecified) | – | – | inactive |
| O=C(Nc1ccc2c(O)c(N=Nc3ccccc3)c(S(=O)(=O)O)cc2c1)Nc1ccc2c(O)c(N=Nc3ccccc3)c(S(=O)(=O)O)cc2c1 | 40.7 µM | 50.1 µM and 191 µM | – |
| CC1(C)OC(=S)N(c2ccccc2)C12C=Cc1cc3ccccc3cc1O2 (stereo unspecified) | > 200 µM | 79.4 µM | – |
| COC(=O)C1C(C(=O)OC)C2(OC(c3ccc(Cl)cc3)=CC2=O)C12OC(c1ccc(Cl)cc1)=CC2=O (stereo unspecified) | > 200 µM | 4.27 µM | – |
| COc1ccccc1NC(=O)C1=C(C)NC(C)=C(C(=O)Nc2ccccc2OC)C1C1=CC=COC1 | > 14.8 µM | > 14.8 µM | – |
| C1Cn2nnnc2N1 | > 2240 µM | > 2240 µM | – |
| Cc1cc(C)c2c(c1)C/C(=C\c1ccccc1C(=O)O)C2=O | – | – | inactive |
| CC(=O)OC1COC(n2c(=S)n(-c3ccccc3)c(=O)c3cc(Br)ccc32)C(OC(C)=O)C1OC(C)=O (stereo unspecified) | > 17 µM | > 17 µM | – |
| N#C/C(=C\NC(=S)N=Nc1c(O)[nH]c2ccccc12)c1nc2ccccc2s1 | > 200 µM | > 200 µM | – |
| CC(=O)OC(OC(C)=O)c1ncccc1C(=O)OC(C)C | > 851 µM | 112 µM | – |
| CCOC(=O)C1=C(C)NC(C)=C(C(=O)OCC)C1c1ccc([N+](=O)[O-])s1 | – | – | inactive |
| COc1ccccc1C1ON=C(c2ccc([N+](=O)[O-])cc2)N1C12CC3CC(CC(C3)C1)C2 (stereo unspecified) | > 200 µM | > 200 µM | – |
| COc1ccc2c(c1)C(=O)N1CCOC1C2C(=O)O (stereo unspecified) | > 955 µM | > 955 µM | – |
| CC(C)(C)[Si](C)(C)OCC1CCC(n2cnc3c(NC(=O)c4ccccc4)ncnc32)O1 (stereo unspecified) | – | – | inactive |
| Cc1cc(=O)oc2cc(O/C(=C\c3ccc(O)cc3)c3nc4ccccc4c(=O)o3)ccc12 | > 22.9 µM | > 22.9 µM | – |
| CCC1(N=[N+]=[N-])C(=O)c2ccccc2N(c2ccccc2)C1=O (stereo unspecified) | > 200 µM | > 200 µM | – |
| Cn1c(=S)[nH]c(N)c(Cc2ccccc2)c1=O | > 200 µM | 64.6 µM | – |
| CCOC(=O)c1c(NCc2ccccc2)n(-c2ccccc2)c(=S)n(-c2ccccc2)c1=O | > 40.7 µM | 30.2 µM | – |
| O=C(O)c1ccccc1C(=O)OC1CC2CCC1C2 (stereo unspecified) | > 200 µM | > 200 µM | – |
| O=C1NCCS(=O)(=O)N2CCC[C@@H]12 | > 1230 µM | > 1230 µM | – |

| SMILES | EC50 | IC50 | outcome |
| --- | --- | --- | --- |
| Cc1ccccc1-n1c2nc(=O)n(C)c(=O)c-2nc2ccccc21 | – | – | inactive |
| O=[N+]([O-])/C(Cl)=C(\NCCN/C(C(Cl)=C(Cl)Cl)=C(/Cl)[N+](=O)[O-])C(Cl)=C(Cl)Cl | > 200 µM | 61.7 µM | – |
| COC(=O)CC1NC(=O)C1C1(C)OCCO1 (stereo unspecified) | > 251 µM | > 251 µM | – |
| Cc1ccc(S(=O)(=O)OCCOS(=O)(=O)c2ccc(C)cc2)cc1 | > 36.3 µM | > 36.3 µM | – |
| Brc1ccc2c(ccc3nc4nnnn4nc32)c1 | > 17.4 µM | > 17.4 µM | – |
| O=c1c(SCc2cccc(F)c2)c(SCc2cccc(F)c2)cnn1-c1ccccc1 | > 30.2 µM | 21.9 µM | – |
| CCC12CCCN(Cc3ccccc3)C1c1c(n(C)c3ccccc13)C(C(=O)OC)C2 (stereo unspecified) | > 32.4 µM | > 32.4 µM | – |
| CCOC(OCC)c1ccccc1.[C-]#[O+].[C-]#[O+].[C-]#[O+].[Cr] | > 20 µM | 2.04 µM | – |
| CCOC(=O)N(C)C1(c2ccccc2)CCN(CCCC(=O)c2ccc(F)cc2)CC1 | > 200 µM | 83.2 µM | – |
| CC(=O)[O-].N.N.N.N.N.[Co+3].[O-][Cl+3]([O-])([O-])[O-] | – | – | inactive |
| CC(=O)OCC1OC(N2C(S)=C(C#N)C(c3ccco3)C(C(C)=O)=C2c2ccccc2)C(OC(C)=O)C(OC(C)=O)C1OC(C)=O (stereo unspecified) | 95.5 µM | > 200 µM | – |
| Nc1ncnc2c1ncn2C1CCCCC(O)C1 (stereo unspecified) | – | – | inactive |
| CC(=S)N/C=C(\C#N)S(=O)(=O)c1ccc(C)cc1 | > 200 µM | > 200 µM | – |
| CC(=O)/C(C)=N/NC(=O)c1ccccc1O | > 4.79 µM | > 4.79 µM | – |
| CC#CC(O)(C(=O)OC1CC2CCC(C1)N2C)C1CCCC1 (stereo unspecified) | > 200 µM | > 200 µM | – |
| O=C(O)Cn1ncn(NC(=O)Cc2ccccc2)c1=S | > 200 µM | > 200 µM | – |
| CCOC(=O)C(NC(C)=O)[CH](c1ccccc1)[Sn]([c]1ccccc1)([c]1ccccc1)[c]1ccccc1 (stereo unspecified) | > 31.6 µM | 7.08 µM | – |
| CC1(C)CNC[C@@](C)(OCCO)C(=O)[N-]C(C)(C)CNC[C@@](C)(OCCO)C(=O)[N-]1.[Ni+2] | > 200 µM | > 200 µM | – |
| Cc1ccc(S(=O)(=O)N/N=C/c2oc(-c3ccncc3)c(-c3ccncc3)c2[N+](=O)[O-])cc1 | > 15.5 µM | > 15.5 µM | – |
| COC1/C=C/OC2(C)Oc3c(C)c(O)c4c(O)c(c(/C=N/N5CCN(Cc6cccc(C(F)(F)F)c6)CC5)c(O)c4c3C2=O)NC(=O)C(C)=C/C=C/C(C)C(O)C(C)C(O)C(C)C(OC(C)=O)C1C (stereo unspecified) | > 200 µM | 6.92 µM | – |
| COc1c2occc2c(N=Cc2c[nH]c3ccccc23)c2ccc(=O)oc12 | > 50.1 µM | 28.2 µM | – |
| COC1(OC)C2(Cl)C3=CCCC=C3C1(Cl)C(Cl)=C2Cl | – | – | inactive |

| SMILES | EC50 | IC50 | outcome |
| --- | --- | --- | --- |
| C=CC(=O)N1C/C(=C\c2ccc(N(C)C)cc2)C(=O)/C(=C/c2ccc(N(C)C)cc2)C1 | > 200 µM | 60.3 µM | – |
| O=S1(=O)c2ccccc2-c2nccc3ccnc1c23 | – | – | inactive |
| Cc1oc2c(c1C)S(=O)(=O)C(C#N)C(c1ccccc1)N2 (stereo unspecified) | > 200 µM | 126 µM | – |
| CC(=O)OC12c3ccccc3C(c3ccccc31)C1C(=O)N(N=C(C)C)C(=O)C12 (stereo unspecified) | > 200 µM | > 200 µM | – |
| O=C1c2cccc(NCCCNCCO)c2C(=O)c2cccc(NCCCNCCO)c21 | – | – | inactive |
| c1ccc(N2CCN(c3ccccc3)C2)cc1 | > 200 µM | > 200 µM | – |
| Cc1ccc(S(=O)(=O)N2CCCN(S(=O)(=O)c3ccc(C)cc3)CCSCCCSCC2)cc1 | > 200 µM | 31.6 µM | – |
| CCC(CC)(CC(=O)O)CC(=O)O | – | – | inactive |
| COc1cccc(-c2nc(-c3cnccn3)n(C3OC(CO)C(O)C(O)C3O)n2)c1 (stereo unspecified) | > 200 µM | > 200 µM | – |
| CCOC(=O)c1cc(-c2ccc(Cl)cc2)c([N+](=O)[O-])n1C | > 200 µM | 26.9 µM | – |
| CC(C)(C)OC1=C(OC(C)(C)C)C(O)(c2ccccc2)C1=O (stereo unspecified) | – | – | inactive |
| CCOc1ccc(/C=C/C(=O)c2ccccc2)cc1 | > 200 µM | 34.7 µM | – |
| COc1cc2c(cc1OC)-c1cc3ccccc3c[n+]1CC2 | > 200 µM | > 200 µM | – |
| N#CC(C#N)=Cc1ccc(C#N)cc1 | > 141 µM | 20.4 µM | – |
| COc1ccc(C(=O)Nc2cc(C(=CCC[C@H]3CC[C@@]4(C)[C@@H](CC[C@@H]5[C@@H]4CC[C@]4(C)[C@@H](C(C)CCCC(C)C)CC[C@@H]54)C3)c3cc(NC(=O)c4ccc(OC)c(C(=O)O)c4)c(OC)c(C(=O)O)c3)cc(C(=O)O)c2OC)cc1C(=O)O (stereo partly specified) | 36.3 µM | 49 µM | – |
| Nc1cc2cc([N+](=O)[O-])ccc2oc1=O | > 178 µM | > 178 µM | – |
| Oc1ccccc1C(c1cc2c(cc1O)OCO2)N1CCOCC1 (stereo unspecified) | > 200 µM | 11 µM | – |
| Cc1cn([C@H]2C[C@@H]3[C@@H](COC(CCC[Se]c4ccccc4)N3O)O2)c(=O)[nH]c1=O (stereo partly specified) | 13.2 µM | 117 µM | – |
| CCN(CC)C(=O)SCCSC(=O)N(CC)CC | > 100 µM | > 100 µM | – |
| CC(C)=C[C@@H]1C[C@H](C)[C@H]2CC[C@H](C)[C@H]3C(=O)C(O)=C(C)C(=O)[C@]123 | > 200 µM | 105 µM | – |
| CCN(CC)CP(CN(CC)CC)CN(CC)CC | > 200 µM | 126 µM | – |
